Counter-ions that a name gives are not always drawn. Like-named read-outs stand apart in the source and are kept apart here.
What was measured:
[1] = cited from earlier work
hDAT = target: T1, hDAT (Homo sapiens, UniProt Q01959); assay: Neurotransmitter Transporter Uptake Assay Kit, DA reuptake inhibition; type: cell-based; details: Table 1; inhibition of dopamine reuptake, reduction of RFU
T1 construct: expressed in transfected cells; host or cells: HEK-293T (HEK293T), stably transfected
Protocol: DA uptake activity was measured using a Neurotransmitter Transporter Uptake Assay Kit (Molecular Devices, San Jose, CA, USA). […] 2-[4-(2-hydroxyethyl)-1-piperazinyl] ethanesulfonic acid (HEPES) buffer solution (150 mM NaCl, 5 mM KCl, 10 mM glucose, 2 mM CaCl2, 1 mM MgCl2, 10 mM HEPES, pH 7.4) was used to wash cells three times before the experiment. Cells in the experimental group were treated with six different compounds. After 15 min, the dye solution was added and the fluorescence intensity was measured for 30 min in the 520 nm range with excitation at 440 nm. The inhibition percentages were calculated using the end point measurements at 30 min. The four-parameter logistic nonlinear regression model was used to determine the half maximal inhibitory concentration (IC50) values.
The DA reuptake inhibitory activities of the six repurposed drugs were evaluated using the Neurotransmitter Transporter Uptake Assay Kit through dose-response assays. This assay employs a novel fluorescent indicator dye designed to mimic neurotransmitters, along with a masking dye to quench extracellular fluorescence, enabling precise measurement of transporter-mediated uptake activity.

T1 sequence (Q01959 whole entry): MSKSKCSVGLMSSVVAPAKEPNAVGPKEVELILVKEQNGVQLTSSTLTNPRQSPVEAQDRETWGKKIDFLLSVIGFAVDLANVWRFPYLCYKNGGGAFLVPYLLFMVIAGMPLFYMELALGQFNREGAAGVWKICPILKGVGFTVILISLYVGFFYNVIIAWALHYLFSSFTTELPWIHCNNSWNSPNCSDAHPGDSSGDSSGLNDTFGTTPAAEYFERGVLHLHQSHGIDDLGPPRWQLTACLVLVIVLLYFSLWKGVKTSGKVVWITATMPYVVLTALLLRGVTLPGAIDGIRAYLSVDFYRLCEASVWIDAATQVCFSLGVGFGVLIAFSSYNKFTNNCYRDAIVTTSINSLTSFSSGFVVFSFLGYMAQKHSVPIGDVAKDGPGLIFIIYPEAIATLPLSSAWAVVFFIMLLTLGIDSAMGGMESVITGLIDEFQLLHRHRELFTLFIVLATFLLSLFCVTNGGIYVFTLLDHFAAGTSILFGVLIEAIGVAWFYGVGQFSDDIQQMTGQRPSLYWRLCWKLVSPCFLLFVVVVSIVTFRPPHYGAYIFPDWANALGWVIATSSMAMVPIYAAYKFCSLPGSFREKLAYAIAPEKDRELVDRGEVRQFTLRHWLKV

## CCCN1CCCC[C@H]1C(=O)Nc1c(C)cccc1C [Compound 4, Ropivacaine]
[1]; previous research
  CNS and cardiac toxicity: mild CNS and cardiac toxicity
hDAT
  IC50: 753 nM

## CCCCN1CCCC[C@H]1C(=O)Nc1c(C)cccc1C [Compound 19, Levobupivacaine]
[1]; particularly under acidosis and hyperkalemia
  CNS and cardiac toxicity: mild CNS and cardiac toxicity
hDAT
  IC50: 1210 nM

## Cc1cccc(C)c1NC(=O)C1CCCCN1C (stereo not drawn) [Compound 14, Mepivacaine hydrochloride]
[1]; restricts application to peripheral nerve blockade
  metabolism: rapid metabolism
hDAT
  IC50: 542 nM

Reference: publication PMC12398837 (Journal of Pharmaceutical Analysis, 2025)
